Test results reported in PMC10810823, “Generation of a new therapeutic D-peptide that induces the differentiation of acute myeloid leukemia cells through A TLR-2 signaling pathway” (Cell Death Discovery, 2024).
Where a SMILES comes first, the peptide text is derived from it. Where no end group is shown, it is not given here. [ ]: non-standard residue; d: D form.

Assays:
THP-1 cells [1] = experiment: Differentiation: cell surface CD11b and CD14 by FACS; type: cell-based, human; details: THP-1, 48 h; ***P < 0.001; 6 independent experiments
Method: (§1) The THP-1, U937, and HL-60 cell lines were purchased from ATCC. THP-1, HL-60, and U937 cells were cultured in RPMI 1640 containing 2 mM glutamine, 100 IU/ml penicillin and 100 μg/ml streptomycin (Sigma), supplemented with 10% fetal bovine serum (FBS; Gibco). Cell cultures were maintained at 37 °C, 5% CO2 at 0.8–1 × 10^5 cells/ml. For the initiation of differentiation in THP-1, HL-60, U937, and primary AML cells, the cells were seeded into 12-well tissue culture plates at 1 × 10^6 cells/well. Subsequently, these cells were exposed to the indicated clonal phages (10^10 virions per well), peptides (10 μg/ml), or 100 nM PMA (Sigma-Aldrich, MO, USA).
Differentiation status was also assessed by morphological observation of the cells and by FACS detection of cell surface CD11b and CD14 expression (Table 3). FcR Blocking Reagent (Miltenyi Biotec) was employed to prevent undesired antibody binding and enhance the staining specificity of cell surface antigens.

THP-1 cells [2] = experiment: Cell differentiation induction: ratio of adherent cells; type: cell-based, human; details: clonal phages P1, P2, P6, P9 enriched in Round 3; Fig. 1G
Method: as §1
Cells were cultured according to the method described above. As the adherent cell numbers reached a peak at 48 h and declined after 72 h, we chose 48 h as the incubation time in the following experiments. Following the incubation period, cells within each were washed 3 times with PBS. Cells were considered to be adherent if they resisted the vigorous shake of the culture flask and washing by pipetting with a normal growth medium. To assess the ratio of adherent cells, an equal amount of FITC beads (BioLegend, Catalog # 424601, CA, USA) was separately introduced to both suspended and adherent cells. Subsequently, the proportions of FITC beads were measured using FACS. […]

NOD/SCID mice = experiment: In vivo toxicity at 10-fold treatment dose (H&E of major organs, glucose and serum biochemical indices); details: 200 mg/kg i.v. every 3 days, 30 days, n = 3 per group
Method: Based on the above in vitro findings, we next tested whether the peptides could suppress the growth of leukemia cells in vivo. To this end, NOD/SCID mice were subcutaneously inoculated with THP-1 cells. L-pep-P6, D-pep-P6, or pep-NC was injected intravenously into NOD/SCID mice (n = 3 per group) at a 10-fold treatment dose (200 mg/kg) every 3 days. We first examined the toxicity of these peptides in vivo. After 30 days of indicated treatments, the major organs, including the heart, kidney, spleen, liver, and lung, were isolated and stained with hematoxylin and eosin. No histological changes in major organs were detectable in the peptide-treated groups when compared with the untreated group (Fig. 4A). We further examined the glucose and serum biochemical indices, such as aspartate aminotransferase (AST), alanine aminotransferase (ALT), creatinine (Cr), and urea.
The mice were categorized into three groups, including the pep-NC group, the D-pep-P6 group, and the […] group (n = 3 per group). These groups received a dosage that was ten times the standard therapeutic amount via the tail vein. Major organs of mice from different treated groups were fixed in 4% formaldehyde for hematoxylin and eosin staining. Following a hydration process, the tissues were stained with Harris hematoxylin for 15 min. […]

[3] = In vivo pharmacokinetic assay; parameters: species or system NOD/SCID mice
Method: In addition, we administered a therapeutic dose of D-pep-P6 (20 mg/kg) via intravenous tail injection into NOD/SCID mice (n = 3 per group). Serum samples were collected at various time points, and the content of D-pep-P6 was quantitatively analyzed using high-performance liquid chromatography coupled with mass spectrometry (Supplemental Fig. 3).
Female NOD/SCID mice weighing between 18 and 20 g were utilized for the pharmacokinetic analysis of D-pep-p6. In the plasma, D-pep-p6 pharmacokinetic profile analysis, groups of mice (n = 3) were administered a single intravenous dose of 20 mg/kg. Blood samples were collected at specified time intervals and subsequently centrifuged at 8000 rpm for 10 min. The resulting plasma was mixed with CH4O in a 3:1 (v/v) ratio and centrifuged once more at 13,000 rpm for 10 min. The supernatant was then analyzed using RP-HPLC to determine parameters such as the maximum plasma concentration (Cmax) and elimination half-life (T1/2).

THP-1 cells [4] = experiment: Apoptosis by Annexin V/propidium iodide staining, flow cytometry; type: cell-based, human; details: THP-1, 48 h; Fig. 1C
Method: as §1
APC Annexin V Apoptosis Detection Kit with PI (BioLegend, Catalog # 640932, CA, USA) was employed to evaluate cell apoptosis. Target cells were washed twice with cold BioLegend’s Cell Staining Buffer, then suspended in Annexin V Binding Buffer at a concentration of 0.25–1.0 × 10^7 cells/ml. To 100 µL of the cell suspension, 5 µL of APC Annexin V and 10 µL of Propidium Iodide Solution (PI) were added. The suspension was gently vortexed and incubated in the dark for 15 minutes at room temperature. Finally, 400 µL of Annexin V Binding Buffer was added to each tube, and the samples were analyzed by flow cytometry. […]

THP-1 cells [5] = experiment: Proliferation by Ki-67 staining, FACS; type: cell-based, human; details: THP-1, 48 h; Fig. 1D
Method: as §1
To assess proliferation, Ki-67 was detected using FACS after 48 h of cell culture exposed to a specific stimulation. Following the manual instruction, the target cells were incubated with 70% cold ethanol at −20 °C for 1 h, washed, and then suspended at a concentration of 1.0 × 10^7/ml in BioLegend Cell Staining Buffer. Subsequently, 100 µl cell suspension was incubated with the 5 µl Ki-67 antibody for flow cytometric analysis.

For “QFPGFGTELPSS [P6, monoclonal phage from Ph.D.-12 library displaying …]”, which “MFI of CD11b expression induced by P6 relative to that induced by PMA” value (THP-1 cells [1]) is on record?
Its value is 1.5 fold.

What about the “MFI of CD14 expression induced by P6 relative to that induced by PMA” value (THP-1 cells [1]) of the same molecule?
Its value is 1.3 fold.

What about the “capability for inducing THP-1 cell differentiation (percentage of adherent cells) among clonal phages” value (THP-1 cells [2]) of the same molecule?
Its value is “greatest capability for inducing THP-1 cell differentiation”.

With `CC(C)C[C@@H](NC(=O)[C@@H](CCC(=O)O)NC(=O)[C@H](NC(=O)CNC(=O)[C@@H](Cc1ccccc1)NC(=O)CNC(=O)[C@H]1CCCN1C(=O)[C@@H](Cc1ccccc1)NC(=O)[C@H](N)CCC(N)=O)[C@H](C)O)C(=O)N1CCC[C@@H]1C(=O)N[C@H](CO)C(=O)N[C@H](CO)C(=O)O` [D-pep-P6] (H-[dQ][dF][dP]G[dF]G[dT][dE][dL][dP][dS][dS]-OH) as the molecule, how does the “signs of toxicity / overall toxicity” value (NOD/SCID mice) read?
The value was “low toxicity”.

What about the “resistance to proteolysis / stability in vivo” value ([3]; NOD/SCID mice, i.v. 20 mg/kg, from concentration-time curve) of the same molecule?
Its value is “remarkable resistance to proteolysis”.

What about the Cmax ([3]; mouse, iv, female NOD/SCID mice, single i.v. 20 mg/kg, n = 3 per time point, plasma (serum), RP-HPLC (HPLC coupled with mass spectrometry), read-out: maximum concentration (Cmax)) of the same molecule?
Its Cmax is 13200 ng/mL.

Which “signs of toxicity / overall toxicity” value (NOD/SCID mice) does the source give for QFPGFGTELPSS [L-pep-P6] here?
The value was “low toxicity”.

With `CCCCCCCCCCCCCC(=O)O[C@@H]1[C@@H](C)[C@@]2(O)[C@@H](C=C(CO)C[C@]3(O)C(=O)C(C)=C[C@@H]23)[C@@H]2C(C)(C)[C@]12OC(C)=O` [PMA, phorbol 12-myristate 13-acetate] as the molecule, how does the “proportions of apoptotic and necrotic cells compared to the unstimulated group” value (THP-1 cells [4]) read?
Its value is “slight increase”.

And the “proliferation (Ki-67 expression) compared to negative control” value (THP-1 cells [5])?
Its value is “significant reduction in proliferation”.
